Laboratory results as given in patent US20060058274A1, “Use of an aldosterone receptor antagonist to improve cognitive function” (Pharmacia Corporation, priority 2000, published 2006).
Marks after values point to notes of the source that are not given here.

How the values were obtained:
[1] = test system: patients with mild-to-moderate hypertension; test: Phase II dose-ranging study of eplerenone in mild-to-moderate hypertension; assay type: in vivo, human; conditions: 50 mg BID
Description: The adjusted mean changes (in mmHg) in diastolic blood pressure (DBP) and systolic blood pressure (SBP) from baseline to final visit are shown in Table 1A.

[2] = test system: patients with severe heart failure; test: Clinical study in patients with severe heart failure: HRQOL by SF-36; assay type: in vivo, human; conditions: for Change from baseline in SF-36 Bodily Pain / Change from baseline in SF-36 General Health / Change from baseline in SF-36 Mental Composite Summary (MCS) / Change from baseline in SF-36 Mental Health / Change from baseline in SF-36 Physical Composite Summary (PCS) / Change from baseline in SF-36 Physical Functioning / Change from baseline in SF-36 Role Limitations - Emotional / Change from baseline in SF-36 Role Limitations - Physical / Change from baseline in SF-36 Social Functioning / Change from baseline in SF-36 Vitality: 25 mg daily, mean ± SD; for Effect size estimate for change in SF-36 Bodily Pain / Effect size estimate for change in SF-36 General Health / Effect size estimate for change in SF-36 Mental Composite Summary (MCS) / Effect size estimate for change in SF-36 Mental Health / Effect size estimate for change in SF-36 Physical Composite Summary (PCS) / Effect size estimate for change in SF-36 Physical Functioning / Effect size estimate for change in SF-36 Role Limitations - Emotional / Effect size estimate for change in SF-36 Role Limitations - Physical / Effect size estimate for change in SF-36 Social Functioning / Effect size estimate for change in SF-36 Vitality: [mean (spironolactone) − mean (placebo)]/(SD placebo at baseline)
Description: Patients: One thousand six hundred and sixty-three (1,663) patients with severe heart failure were enrolled in the study. […] Treatment with digitalis and vasodilators was allowed, but potassium-sparing diuretics were not permitted. Oral potassium supplements were not recommended unless hypokalemia (serum potassium ≦3.5 mmol per liter) developed. A low salt diet (100-200 mEg/day, sodium) was recommended to all patients. Patients were excluded from the trial if they had clinically significant operable valvular disease (other than mitral or tricuspid regurgitation), congenital heart disease, unstable angina, primary hepatic failure, active malignancy, a heart transplant or were a candidate for heart transplantation, or any life threatening diseae (other than heart failure). Other criteria for exclusion were a serum creatinine concentration >2.5 mg per deciliter (>220 μmol per liter) or a serum potassium concentration >5.0 mmol per liter. The protocol was approved by the Institutional Review Boards or Ethics Committees of all participating institutions. Written informed consent was obtained from all patients.
Study Group: Subjects were randomly assigned to receive either spironolactone 25 mg daily or placebo. HRQOL was assessed in a subsample of 90 subjects in 2 participating countries using the Medical Outcomes Trust Short-Form 36-item Health Survey (SF-36). Assessments were scheduled at baseline, 1, 2, 3, and 6 months after initiation of therapy.
HRQOL Evaluation: HRQOL was assessed using the Short-Form 36-item Health Survey (SF-36). (Ware J E, Snow K K, Kosinski M, Gandek B. SF-36 Health Survey: Manual and Interpretation Guide. Boston, Mass.: The Health Institute, 1993). Assessments were scheduled at baseline, 1, 2, 3, 6 and 12 months after initiation of therapy. The analysis presented herein is limited to 6-month follow-up as less than 50% of subjects had 12-month follow-up data.
Statistical Analyses: Change from baseline was assessed for the 8 dimension scores of the SF-36, as well as the Physical (PCS) and Mental Composite Summary (MCS) scores. (Ware J E, Kosinski M, Keller S D. SF-36 Physical and Mental Health Summary Scales: A User's Manual. Boston, Mass.: The Health Institute, 1994). The PCS and MCS are generated to represent weighted summaries scores of the four physical functioning scales and four mental functioning scales of the SF-36. The summary scores are generally regarded as having improved reliability and precision as they are based on an incrementally larger number of health states contained in the SF-36 items. (Ware J E, Kosinski M, Keller S D. SF-36 Physical and Mental Health Summary Scales: A User's Manual. Boston, Mass.: The Health Institute, 1994.) Changes from baseline scores were compared between groups using non-directional independent groups t-tests. An alpha level of 0.05 was considered to be statistically significant. As an indicator of the responsiveness of the SF-36 scales to changes in health-related quality of life in severe heart failure patients, effect size estimates were also calculated. Effect size estimates were calculated as [mean (spironolactone)−mean (placebo)]/(SD placebo at baseline). (Hays R D, Anderson R, Revicki D. Psychometric considerations in evaluating health-related quality of life. Quality of Life Research 1993;2:441-449; Samsa G, Edelman D, Rothman M L, et al. Determining clinically important differences in health status measures. A general approach with illustrations to the Health Utilities Index Mark II. PharmacoEconomics1999;15:141-155). All analyses were carried out using SAS System for Windows, Release 6.12. (SAS version 6.12, SAS Institute Inc., North Carolina, 1996).
Patient Characteristics: Baseline HRQOL was assessed in a subsample of 90 subjects in 2 participating countries (i.e., Brazil and Canada). Forty-six subjects were randomized to spironolactone; 44 were randomized to the placebo arm. Sixty subjects had complete data for the 6 months of follow-up.

women with PMS = conditions: cited from earlier work
rats = conditions: prior treatment; scopolamine cholinergic blockade; cited from earlier work
animal models = conditions: cited from earlier work
[3] = ambulatory blood pressure monitoring
[4] = 3 months, listed as spironolactone
[5] = 6 months, listed as spironolactone
[6] = added to conventional heart failure therapy, severe HF
[7] = 100 mg daily from day 14 of menstrual cycle, compared to placebo, p<0.001

CC(=O)SC1CC2=CC(=O)CCC2(C)C2CCC3(C)C(CCC34CCC(=O)O4)C12 (stereo not shown) [Spironolactone, 17-hydroxy-7″-mercapto-3-oxo-17″-pregn-4-ene-21-carboxylic acid γ-lactone acetate]
adjusted mean change in ABPM DBP from baseline to final visit [1, 3]: −8.7 mmHg | adjusted mean change in ABPM SBP from baseline to final visit [1, 3]: −15.8 mmHg | adjusted mean change in Cuff DBP from baseline to final visit ([1]; eight-week study): −9.5 mmHg | adjusted mean change in Cuff SBP from baseline to final visit ([1]; eight-week study): −16.7 mmHg | Change from baseline in SF-36 Bodily Pain ([2]; 3 months): 19.6 ± 30.0^a | Change from baseline in SF-36 General Health ([2]; 3 months): 9.7 ± 20.4^a | Change from baseline in SF-36 Mental Composite Summary (MCS) ([2]; 3 months): 13.2 ± 11.8^a,b | Change from baseline in SF-36 Mental Health ([2]; 3 months): 19.9 ± 21.2^a,b | Change from baseline in SF-36 Physical Composite Summary (PCS) ([2]; 3 months): 3.0 ± 8.1^a | Change from baseline in SF-36 Physical Functioning ([2]; 3 months): 7.9 ± 19.4^a | Change from baseline in SF-36 Role Limitations - Emotional ([2]; 3 months): 37.8 ± 46.1^a | Change from baseline in SF-36 Role Limitations - Physical ([2]; 3 months): 23.3 ± 40.1^a | Change from baseline in SF-36 Social Functioning ([2]; 3 months): 24.6 ± 33.6^a | Change from baseline in SF-36 Vitality ([2]; 3 months): 16.7 ± 24.1^a | Change from baseline in SF-36 Mental Composite Summary (MCS) [2, 4]: 13.2±11.8 | Change from baseline in SF-36 Mental Health [2, 4]: 19.9±21.2 | Effect size estimate for change in SF-36 Bodily Pain ([2]; 3 months): 0.40 | Effect size estimate for change in SF-36 General Health ([2]; 3 months): 0.03 | Effect size estimate for change in SF-36 Mental Composite Summary (MCS) ([2]; 3 months): 0.86 | Effect size estimate for change in SF-36 Mental Health ([2]; 3 months): 0.76 | Effect size estimate for change in SF-36 Physical Composite Summary (PCS) ([2]; 3 months): −0.21 | Effect size estimate for change in SF-36 Physical Functioning ([2]; 3 months): −0.23 | Effect size estimate for change in SF-36 Role Limitations - Emotional ([2]; 3 months): 0.48 | Effect size estimate for change in SF-36 Role Limitations - Physical ([2]; 3 months): 0.33 | Effect size estimate for change in SF-36 Social Functioning ([2]; 3 months): 0.26 | Effect size estimate for change in SF-36 Vitality ([2]; 3 months): −0.07 | Change from baseline in SF-36 Bodily Pain ([2]; 6 months): 15.9 ± 30.5^a | Change from baseline in SF-36 General Health ([2]; 6 months): 12.0 ± 22.3^a | Change from baseline in SF-36 Mental Composite Summary (MCS) ([2]; 6 months): 10.3 ± 12.8^a | Change from baseline in SF-36 Mental Health ([2]; 6 months): 17.5 ± 22.9^a,b | Change from baseline in SF-36 Physical Composite Summary (PCS) ([2]; 6 months): 3.9 ± 9.1^a | Change from baseline in SF-36 Physical Functioning ([2]; 6 months): 11.4 ± 21.5^a | Change from baseline in SF-36 Role Limitations - Emotional ([2]; 6 months): 24.0 ± 39.9^a | Change from baseline in SF-36 Role Limitations - Physical ([2]; 6 months): 14.8 ± 32.3^a | Change from baseline in SF-36 Social Functioning ([2]; 6 months): 23.1 ± 32.1^a | Change from baseline in SF-36 Vitality ([2]; 6 months): 19.0 ± 25.5^a | Change from baseline in SF-36 Mental Composite Summary (MCS) [2, 5]: 10.3±12.8 | Change from baseline in SF-36 Mental Health [2, 5]: 17.5±22.9 | Effect size estimate for change in SF-36 Bodily Pain ([2]; 6 months): 0.28 | Effect size estimate for change in SF-36 General Health ([2]; 6 months): 0.08 | Effect size estimate for change in SF-36 Mental Composite Summary (MCS) ([2]; 6 months): 0.64 | Effect size estimate for change in SF-36 Mental Health ([2]; 6 months): 0.59 | Effect size estimate for change in SF-36 Physical Composite Summary (PCS) ([2]; 6 months): −0.07 | Effect size estimate for change in SF-36 Physical Functioning ([2]; 6 months): −0.11 | Effect size estimate for change in SF-36 Role Limitations - Emotional ([2]; 6 months): −0.42 | Effect size estimate for change in SF-36 Role Limitations - Physical ([2]; 6 months): −0.18 | Effect size estimate for change in SF-36 Social Functioning ([2]; 6 months): 0.20 | Effect size estimate for change in SF-36 Vitality ([2]; 6 months): 0.13 | effect on physical health or functioning [2, 6]: no detrimental effect | impact on mental health status [2, 6]: strong, positive impact | negative mood symptom scores (women with PMS; [7]): significant decrease | somatic symptom scores (women with PMS; [7]): significant decrease | irritability, depression, feeling of swelling, breast tenderness and food craving (women with PMS; in comparison to placebo): significantly improved | enhanced reactivity to novelty (rats): ameliorated | myocardial fibrosis (animal models): prevents
